Patent US10004703B2, “Treatment of alzheimer's disease using compounds that reduce the activity of non-selective CA++ activated ATP-sensitive cation channels regulated by SUR1 channels” (Biogen Chesapeake LLC, priority 2006, dated 2018)

Experiments:
[1] = Exemplary case: AD patient given daily glibenclamide by monthly depot intramuscular injection, neurological testing; type: in vivo, human; conditions: person with AD; 1.0 mg per day via monthly depot intramuscular injection
Text: The following exemplary descriptions illustrate ways to implement the methods and treatments disclosed herein. […] A diagnosis of AD is made as other causes are ruled out. […] Depot injection is chosen in order to optimize patient compliance.

[2] = Exemplary case: type 2 diabetic patient with AD given daily glibenclamide, metformin ceased; type: in vivo, human; conditions: 10 mg per day
Text: The following exemplary descriptions illustrate ways to implement the methods and treatments disclosed herein.
A type 2 diabetic […] presents to their family physician with complaints of forgetfulness and increasing confusion. They are being treated with metformin and diet controls for their Type 2 diabetes. The patient is diagnosed with AD upon referral to a geriatrician and upon clinical, laboratory and imaging investigations.

Structure (SMILES): COc1ccc(Cl)cc1C(=O)NCCc1ccc(S(=O)(=O)NC(=O)NC2CCCCC2)cc1 [glibenclamide, 5-chloro-N-[2-[4-(cyclohexylcarbamoylsulfamoyl)phenyl]ethyl]-2-methoxy-benzamide]
- Neurological testing: AD symptoms [1]: stabilization of symptoms
- Blood glucose measurements and HbA1C levels [2]: stable blood glucose measurements and HbA1C levels
- Episodes of forgetfulness [2]: episodes of forgetfulness are waning
